In ChEMBL document CHEMBL1132132, “Synthesis of heparin partial structures and their binding activities to platelets” (1999):

Key:
Format in all cases: functional
Homo sapiens [1] = species on record: Homo sapiens; assay: Platelets binding activity relative to heparin was evaluated by competitive binding assay using [3H]-labeled heparin at concentration 0.001 uM
Homo sapiens [2] = species on record: Homo sapiens; assay: Platelets binding activity relative to heparin was evaluated by competitive binding assay using [3H]-labeled heparin at concentration ~80 uM
Homo sapiens [3] = species on record: Homo sapiens; assay: Platelets binding activity relative to heparin was evaluated by competitive binding assay using [3H]-labeled heparin at concentration ~1.2 uM
Homo sapiens [4] = species on record: Homo sapiens; assay: Platelets binding activity relative to heparin was evaluated by competitive binding assay using [3H]-labeled heparin at concentration ~400 uM
Homo sapiens [5] = species on record: Homo sapiens; assay: Platelets binding activity relative to heparin was evaluated by competitive binding assay using [3H]-labeled heparin at concentration ~1000 uM
Homo sapiens [6] = species on record: Homo sapiens; assay: Platelets binding activity relative to heparin was evaluated by competitive binding assay using [3H]-labeled heparin at concentration ~1.9 uM
Homo sapiens [7] = species on record: Homo sapiens; assay: Platelets binding activity relative to heparin was evaluated by competitive binding assay using [3H]-labeled heparin at concentration ~60 uM
Homo sapiens [8] = species on record: Homo sapiens; assay: Platelets binding activity relative to heparin was evaluated by competitive binding assay using [3H]-labeled heparin at concentration ~50 uM

Compound	Binding (Homo sapiens [1]) [%]	Binding (Homo sapiens [2]) [%]	Binding (Homo sapiens [3]) [%]	Binding (Homo sapiens [4]) [%]	Binding (Homo sapiens [5]) [%]	Binding (Homo sapiens [6]) [%]	Binding (Homo sapiens [7]) [%]	Binding (Homo sapiens [8]) [%]
CO[C@H]1O[C@H](COS(=O)(=O)[O-])[C@@H](O[C@H]2O[C@H](C(=O)[O-])[C@@H](OC)[C@H](O)[C@H]2OS(=O)(=O)[O-])[C@H](O)[C@H]1NS(=O)(=O)[O-].[Na+].[Na+].[Na+].[Na+]	115	97	96	96	97	–	–	–
CO[C@H]1O[C@H](CO)[C@@H](O[C@H]2O[C@H](C(=O)[O-])[C@@H](OC3O[C@H](COS(=O)(=O)[O-])[C@@H](OC)[C@H](O)[C@H]3NS(=O)(=O)[O-])[C@H](O)[C@H]2OS(=O)(=O)[O-])[C@H](O)[C@H]1NS(=O)(=O)[O-].[Na+].[Na+].[Na+].[Na+].[Na+] (stereo not given in full)	–	–	100	110	110	100	105	–
CO[C@H]1O[C@H](COS(=O)(=O)[O-])[C@@H](O[C@H]2O[C@H](C(=O)[O-])[C@@H](O[C@H]3O[C@H](COS(=O)(=O)[O-])[C@@H](OC)[C@H](O)[C@H]3NS(=O)(=O)[O-])[C@H](O)[C@H]2OS(=O)(=O)[O-])[C@H](O)[C@H]1NS(=O)(=O)[O-].[Na+].[Na+].[Na+].[Na+].[Na+].[Na+]	–	–	105	100	97	105	–	105
CO[C@@H]1O[C@H](C(=O)[O-])[C@@H](O[C@H]2O[C@H](COS(=O)(=O)[O-])[C@@H](OC)[C@H](OS(=O)(=O)[O-])[C@H]2NS(=O)(=O)[O-])[C@H](O)[C@H]1OS(=O)(=O)[O-].[Na+].[Na+].[Na+].[Na+].[Na+]	–	100	100	115	75	98	–	–
